Test results from ChEMBL document CHEMBL1201862, “PubChem BioAssay data set” (2004).
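Test compounds were applied to cells in 96-well plates for 48 hours at 5 doses. Here, GI50 denotes the concentration required for 50% inhibition of growth.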 Calls of active or inactive are those of the source. Cut-off read from the data, not from the text of the source: active = GI50 up to about 1.1 µM and inactive = higher.

Tests used:
Test in all cases: DTP human tumour cell line panel, 48 h
A549 = tested on: A549
CCRF-CEM = tested on: CCRF-CEM
COLO 205 = tested on: COLO 205
HCT-15 = tested on: HCT-15
HOP-62 = tested on: HOP-62
K562 = tested on: K562
LOX IMVI = tested on: LOX IMVI
MOLT-4 = tested on: MOLT-4
NCI-H226 = tested on: NCI-H226
NCI-H522 = tested on: NCI-H522
OVCAR-3 = tested on: OVCAR-3
OVCAR-4 = tested on: OVCAR-4
OVCAR-5 = tested on: OVCAR-5
OVCAR-8 = tested on: OVCAR-8
RPMI-8226 = tested on: RPMI-8226
SN12C = tested on: SN12C
SNB-75 = tested on: SNB-75
U-251 = tested on: U-251
UACC-257 = tested on: UACC-257
UACC-62 = tested on: UACC-62

Measured: GI50

Cc1ccc(S(=O)(=O)N(C=O)N=C2CCN(Cc3ccccc3)CC2)cc1
> 100 µM: HCT-15
inactive: A549 > 100 µM | CCRF-CEM > 100 µM | COLO 205 > 100 µM | HOP-62 > 100 µM | K562 > 100 µM | LOX IMVI > 100 µM | MOLT-4 > 100 µM | NCI-H226 > 100 µM | NCI-H522 > 100 µM | OVCAR-3 > 100 µM | OVCAR-4 > 100 µM | OVCAR-5 > 100 µM | OVCAR-8 > 100 µM | RPMI-8226 > 100 µM | SN12C > 100 µM | SNB-75 > 100 µM | U-251 > 100 µM | UACC-257 > 100 µM | UACC-62 > 100 µM

CSCCC(NC(=O)OCc1ccccc1)P(=O)(O)c1ccccc1 (stereo not drawn)
inactive: A549 > 100 µM | CCRF-CEM > 100 µM | COLO 205 > 100 µM | HOP-62 > 100 µM | K562 > 100 µM | LOX IMVI > 100 µM | MOLT-4 > 100 µM | NCI-H226 > 100 µM | NCI-H522 > 100 µM | OVCAR-3 > 100 µM | OVCAR-4 > 100 µM | OVCAR-5 > 100 µM | OVCAR-8 > 100 µM | RPMI-8226 > 100 µM | SN12C > 100 µM | SNB-75 > 100 µM | U-251 > 100 µM | UACC-257 > 100 µM
> 100 µM: HCT-15

CCOP(=O)(CN=C(c1ccccc1)c1ccccc1)OCC
inactive: A549 > 100 µM | CCRF-CEM > 100 µM | COLO 205 > 100 µM | HOP-62 > 100 µM | K562 > 100 µM | LOX IMVI > 100 µM | MOLT-4 > 100 µM | NCI-H226 > 100 µM | NCI-H522 > 100 µM | OVCAR-3 63.2 µM | OVCAR-4 > 100 µM | OVCAR-5 > 100 µM | OVCAR-8 > 100 µM | RPMI-8226 > 100 µM | SN12C > 100 µM | SNB-75 > 100 µM | U-251 > 100 µM | UACC-257 > 100 µM
> 100 µM: HCT-15

Oc1c(Br)ccc2cccnc12
active: CCRF-CEM 0.521 µM | K562 1.06 µM | LOX IMVI 0.895 µM | NCI-H522 0.959 µM
inactive: A549 3.14 µM | COLO 205 3.04 µM | HOP-62 12.4 µM | MOLT-4 2.02 µM | NCI-H226 5.19 µM | OVCAR-3 1.32 µM | OVCAR-4 2.1 µM | OVCAR-5 4.32 µM | OVCAR-8 2.25 µM | RPMI-8226 2.79 µM | SN12C 4.73 µM | SNB-75 10.4 µM | U-251 2.4 µM | UACC-257 1.36 µM | UACC-62 1.52 µM
0.948 µM: HCT-15

N#CC1=C(O)NC(O)=C(C#N)C1c1c(Cl)cccc1Cl
inactive: A549 27.3 µM | CCRF-CEM > 100 µM | COLO 205 37.1 µM | HOP-62 27.7 µM | K562 > 100 µM | LOX IMVI 15.8 µM | MOLT-4 > 100 µM | NCI-H226 17.9 µM | NCI-H522 35.2 µM | OVCAR-3 32.9 µM | OVCAR-4 67.8 µM | OVCAR-5 33.5 µM | OVCAR-8 20.2 µM | RPMI-8226 > 100 µM | SN12C 31.8 µM | SNB-75 11.7 µM | U-251 32.7 µM | UACC-257 35.2 µM | UACC-62 23.5 µM
20.4 µM: HCT-15

Cc1ccc(C#CS(=O)(=O)C(F)(F)F)cc1
inactive: A549 > 100 µM | CCRF-CEM > 100 µM | COLO 205 > 100 µM | HOP-62 > 100 µM | K562 > 100 µM | LOX IMVI > 31.6 µM | MOLT-4 > 100 µM | NCI-H226 > 89.7 µM | NCI-H522 > 100 µM | OVCAR-3 > 100 µM | OVCAR-4 > 100 µM | OVCAR-5 > 100 µM | OVCAR-8 > 100 µM | RPMI-8226 > 100 µM | SN12C > 100 µM | SNB-75 > 100 µM | U-251 > 100 µM | UACC-257 > 100 µM | UACC-62 > 100 µM
> 100 µM: HCT-15

COC1C(O)C(n2ncc3c(SC)nc(SC)nc32)OC1C(O)CO (stereo not drawn)
> 100 µM: HCT-15
inactive: A549 > 100 µM | CCRF-CEM > 100 µM | COLO 205 > 100 µM | HOP-62 > 100 µM | K562 > 100 µM | LOX IMVI > 100 µM | MOLT-4 > 100 µM | NCI-H226 > 100 µM | NCI-H522 > 100 µM | OVCAR-3 > 100 µM | OVCAR-4 > 100 µM | OVCAR-5 > 100 µM | OVCAR-8 > 100 µM | RPMI-8226 > 100 µM | SN12C > 100 µM | SNB-75 > 100 µM | U-251 > 100 µM | UACC-257 > 37.6 µM | UACC-62 > 100 µM

O=C1C=C(Sc2ccccc2)c2nccc3c2c1nc1ccccc13
12.2 µM: HCT-15
inactive: A549 31.5 µM | CCRF-CEM 3.13 µM | COLO 205 16.6 µM | HOP-62 14 µM | LOX IMVI 11.8 µM | MOLT-4 4.27 µM | NCI-H226 72.6 µM | NCI-H522 2.33 µM | OVCAR-3 3.35 µM | OVCAR-4 16.1 µM | OVCAR-5 32.4 µM | OVCAR-8 18.1 µM | RPMI-8226 28.1 µM | SN12C 17.8 µM | SNB-75 33.3 µM | U-251 18.5 µM | UACC-257 15.5 µM | UACC-62 15.5 µM
active: K562 0.0234 µM

CCOC(=O)c1c[nH]c2cc3c(cc2c1=O)CCS3(=O)=O.CCOC(=O)c1c[nH]c2ccc3c(c2c1=O)S(=O)(=O)CC3
> 100 µM: HCT-15
inactive: A549 > 100 µM | CCRF-CEM > 100 µM | COLO 205 > 100 µM | HOP-62 > 100 µM | K562 > 100 µM | LOX IMVI > 100 µM | MOLT-4 > 100 µM | NCI-H226 62.4 µM | NCI-H522 > 100 µM | OVCAR-3 > 100 µM | OVCAR-4 > 100 µM | OVCAR-5 > 100 µM | OVCAR-8 > 100 µM | RPMI-8226 > 100 µM | SN12C > 100 µM | SNB-75 > 100 µM | U-251 > 100 µM | UACC-257 > 100 µM | UACC-62 > 100 µM

COc1ccc2[nH]c3c(C)c4ccncc4c(C)c3c2c1
inactive: NCI-H226 1.13 µM | OVCAR-5 1.42 µM | SNB-75 1.17 µM | UACC-257 1.85 µM
0.22 µM: HCT-15
active: A549 0.264 µM | CCRF-CEM 0.0982 µM | COLO 205 0.19 µM | HOP-62 0.946 µM | K562 0.196 µM | LOX IMVI 0.251 µM | MOLT-4 0.0635 µM | NCI-H522 0.681 µM | OVCAR-3 0.402 µM | OVCAR-4 0.258 µM | OVCAR-8 0.111 µM | RPMI-8226 0.289 µM | SN12C 0.177 µM | U-251 0.513 µM | UACC-62 0.731 µM

O=[N+]([O-])c1cccc2nccc(NCC(O)CO)c12 (stereo not drawn)
inactive: A549 15.1 µM | CCRF-CEM 13.3 µM | COLO 205 15 µM | HOP-62 17.6 µM | K562 20.2 µM | LOX IMVI 21.7 µM | MOLT-4 9.55 µM | NCI-H226 12.2 µM | NCI-H522 7.01 µM | OVCAR-3 15.5 µM | OVCAR-4 18.5 µM | OVCAR-5 21 µM | OVCAR-8 11.6 µM | RPMI-8226 12.7 µM | SN12C 16 µM | SNB-75 22.8 µM | U-251 14.6 µM | UACC-257 15.2 µM | UACC-62 15 µM
8.85 µM: HCT-15

O=C(O)c1ccc(Nc2c3ccccc3nc3ccccc23)cc1
inactive: A549 41.2 µM | CCRF-CEM 26.9 µM | COLO 205 > 100 µM | HOP-62 > 67.3 µM | K562 76.2 µM | LOX IMVI 60.8 µM | MOLT-4 23.1 µM | NCI-H226 31.8 µM | NCI-H522 > 75.7 µM | OVCAR-3 > 100 µM | OVCAR-4 > 100 µM | OVCAR-5 > 100 µM | OVCAR-8 64 µM | RPMI-8226 54.8 µM | SN12C 64.7 µM | SNB-75 > 83.9 µM | U-251 51.6 µM | UACC-257 > 100 µM | UACC-62 47.4 µM
64.4 µM: HCT-15
